In the supplement of paper PMC9663587:

Legend:
Test in all cases: GR value, 72 h; higher = faster growth (1 = untreated, <0 = killing);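 note: breast cancer and non-malignant breast epithelial lines, nine half-log doses, viable cells counted by Hoechst and LIVE/DEAD dye imaging versus time-zero plates and DMSO controls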
Neratinib/HKI272 = compound: CCOc1cc2ncc(C#N)c(Nc3ccc(OCc4ccccn4)c(Cl)c3)c2cc1NC(=O)/C=C/CN(C)C [Neratinib/HKI272]
[1] = compound: CCc1cnn2c(NCc3ccc[n+]([O-])c3)cc(N3CCCC[C@H]3CCO)nc12
LEE011/Ribociclib = compound: CN(C)C(=O)c1cc2cnc(Nc3ccc(N4CCNCC4)cn3)nc2n1C1CCCC1 [LEE011/Ribociclib]
THZ531 = compound: CN(C)C/C=C/C(=O)Nc1ccc(C(=O)N2CCC[C@@H](Nc3ncc(Cl)c(-c4c[nH]c5ccccc45)n3)C2)cc1 [THZ531]
THZ1 = compound: CN(C)C/C=C/C(=O)Nc1ccc(C(=O)Nc2cccc(Nc3ncc(Cl)c(-c4c[nH]c5ccccc45)n3)c2)cc1 [THZ1]
Flavopiridol = compound: CN1CC[C@H](c2c(O)cc(O)c3c(=O)cc(-c4ccccc4Cl)oc23)[C@H](O)C1 [Flavopiridol]

Cell Line: MCF10A
- GR value (Neratinib/HKI272; 0.0003162 µM): 1 GR
- GR value (Neratinib/HKI272; 0.001 µM): 1 GR
- GR value (Neratinib/HKI272; 0.003162 µM): 1 GR
- GR value (Neratinib/HKI272; 0.01 µM): 0.976 GR
- GR value (Neratinib/HKI272; 0.03162 µM): 0.723 GR
- GR value (Neratinib/HKI272; 0.1 µM): 0.496 GR
- GR value (Neratinib/HKI272; 0.3162 µM): 0.304 GR
- GR value (Neratinib/HKI272; 1 µM): 0.179 GR
- GR value (Neratinib/HKI272; 3.162 µM): 0.099 GR
- GR value ([1]; 0.0001 µM): 1.01 GR
- GR value ([1]; 0.0003162 µM): 1.01 GR
- GR value ([1]; 0.001 µM): 1.02 GR
- GR value ([1]; 0.003162 µM): 1.04 GR
- GR value ([1]; 0.01 µM): 0.958 GR
- GR value ([1]; 0.03162 µM): -0.188 GR
- GR value ([1]; 0.1 µM): -0.226 GR
- GR value ([1]; 0.3162 µM): -0.223 GR
- GR value ([1]; 1 µM): -0.223 GR
- GR value (LEE011/Ribociclib; 0.001 µM): 0.91 GR
- GR value (LEE011/Ribociclib; 0.003162 µM): 0.888 GR
- GR value (LEE011/Ribociclib; 0.01 µM): 0.821 GR
- GR value (LEE011/Ribociclib; 0.03162 µM): 0.781 GR
- GR value (LEE011/Ribociclib; 0.1 µM): 0.79 GR
- GR value (LEE011/Ribociclib; 0.3162 µM): 0.756 GR
- GR value (LEE011/Ribociclib; 1 µM): 0.732 GR
- GR value (LEE011/Ribociclib; 3.162 µM): 0.665 GR
- GR value (LEE011/Ribociclib; 10 µM): 0.434 GR
- GR value (THZ531; 0.0001 µM): 0.985 GR
- GR value (THZ531; 0.0003162 µM): 0.995 GR
- GR value (THZ531; 0.001 µM): 1.01 GR
- GR value (THZ531; 0.003162 µM): 1 GR
- GR value (THZ531; 0.01 µM): 1.01 GR
- GR value (THZ531; 0.03162 µM): 0.981 GR
- GR value (THZ531; 0.1 µM): 0.903 GR
- GR value (THZ531; 0.3162 µM): 0.612 GR
- GR value (THZ531; 1 µM): -0.625 GR
- GR value (THZ1; 0.0001 µM): 0.995 GR
- GR value (THZ1; 0.0003162 µM): 1.01 GR
- GR value (THZ1; 0.001 µM): 0.985 GR
- GR value (THZ1; 0.003162 µM): 0.992 GR
- GR value (THZ1; 0.01 µM): 0.896 GR
- GR value (THZ1; 0.03162 µM): 0.69 GR
- GR value (THZ1; 0.1 µM): 0.32 GR
- GR value (THZ1; 0.3162 µM): -0.0551 GR
- GR value (THZ1; 1 µM): -0.563 GR
- GR value (Flavopiridol; 0.0001 µM): 1.01 GR
- GR value (Flavopiridol; 0.0003162 µM): 1.01 GR
- GR value (Flavopiridol; 0.001 µM): 1.03 GR
- GR value (Flavopiridol; 0.003162 µM): 1.03 GR
- GR value (Flavopiridol; 0.01 µM): 1.04 GR
- GR value (Flavopiridol; 0.03162 µM): 1.03 GR
- GR value (Flavopiridol; 0.1 µM): 0.822 GR
- GR value (Flavopiridol; 0.3162 µM): -0.322 GR
- GR value (Flavopiridol; 1 µM): -0.67 GR
